# Publication PMC5513037, “Examining the influence of specificity ligands and ATP-competitive ligands on the overall effectiveness of bivalent kinase inhibitors” (Proteome Science, 2017)
# Key:
# Assay in all cases: KAM-matrix competition in K562 lysate;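 on 0.001 uM KAM: median log10 fold change of treatment over DMSO control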;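 on 0.01 uM KAM: median log10 fold change of treatment over DMSO control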;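 on 0.1 uM KAM: median log10 fold change of treatment over DMSO control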;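 on 1 uM KAM: median log10 fold change of treatment over DMSO control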;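 on 10 uM KAM: median log10 fold change of treatment over DMSO control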
# Assay type in all cases: binding
# MTOR = molecular target: T1, MTOR (Homo sapiens, UniProt P42345);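 on 0.001 uM KAM: median log10 fold change of treatment over DMSO control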;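 on 0.01 uM KAM: median log10 fold change of treatment over DMSO control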;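 on 0.1 uM KAM: median log10 fold change of treatment over DMSO control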;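 on 1 uM KAM: median log10 fold change of treatment over DMSO control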;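 on 10 uM KAM: median log10 fold change of treatment over DMSO control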
# T1 construct: endogenous in cells; host or cells: K562
# Method: (§1) Supplement 12953_2017_125_MOESM1_ESM.zip/MS_Supp Info.xlsx, sheet "KAM" | column: 10 uM KAM; 1 uM KAM; 0.1 uM KAM; 0.01 uM KAM; 0.001 uM KAM; RB50
# JAK1 = molecular target: T2, JAK1 (Homo sapiens, UniProt P23458)
# T2 construct: endogenous in cells; host or cells: K562
# T2 sequence (P23458 whole entry): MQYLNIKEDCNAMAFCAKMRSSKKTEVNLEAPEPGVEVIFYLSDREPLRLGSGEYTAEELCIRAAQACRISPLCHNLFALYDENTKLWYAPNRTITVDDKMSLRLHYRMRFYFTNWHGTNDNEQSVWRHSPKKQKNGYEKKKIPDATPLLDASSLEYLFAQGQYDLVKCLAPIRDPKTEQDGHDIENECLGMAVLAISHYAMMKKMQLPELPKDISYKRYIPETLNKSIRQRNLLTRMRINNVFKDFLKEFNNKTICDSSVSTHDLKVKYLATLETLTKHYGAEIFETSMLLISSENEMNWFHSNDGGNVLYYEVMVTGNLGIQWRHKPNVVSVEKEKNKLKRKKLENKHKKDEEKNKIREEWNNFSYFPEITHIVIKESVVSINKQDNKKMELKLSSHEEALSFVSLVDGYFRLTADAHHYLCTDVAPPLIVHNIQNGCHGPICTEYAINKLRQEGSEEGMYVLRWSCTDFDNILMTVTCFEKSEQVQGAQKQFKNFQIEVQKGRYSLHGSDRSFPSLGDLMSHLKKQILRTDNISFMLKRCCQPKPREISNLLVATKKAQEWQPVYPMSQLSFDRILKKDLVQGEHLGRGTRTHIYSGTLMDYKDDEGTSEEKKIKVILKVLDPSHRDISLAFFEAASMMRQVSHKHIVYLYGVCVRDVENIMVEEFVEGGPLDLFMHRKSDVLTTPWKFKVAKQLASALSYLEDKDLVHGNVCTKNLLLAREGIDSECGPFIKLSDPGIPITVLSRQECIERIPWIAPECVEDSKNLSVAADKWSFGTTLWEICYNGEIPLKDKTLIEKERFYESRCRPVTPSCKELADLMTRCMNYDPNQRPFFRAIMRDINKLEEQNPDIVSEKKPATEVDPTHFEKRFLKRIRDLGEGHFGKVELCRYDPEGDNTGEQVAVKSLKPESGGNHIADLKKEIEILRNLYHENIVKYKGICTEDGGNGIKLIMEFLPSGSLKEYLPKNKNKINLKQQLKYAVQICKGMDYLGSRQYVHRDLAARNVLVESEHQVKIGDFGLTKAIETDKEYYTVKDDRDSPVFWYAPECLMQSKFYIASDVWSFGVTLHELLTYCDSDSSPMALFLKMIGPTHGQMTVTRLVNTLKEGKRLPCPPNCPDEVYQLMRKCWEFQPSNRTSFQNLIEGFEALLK
# Method: as §1
# GUCY2F = molecular target: T3, GUCY2F (Homo sapiens, UniProt P51841);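 on 0.001 uM KAM: median log10 fold change of treatment over DMSO control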;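 on 0.01 uM KAM: median log10 fold change of treatment over DMSO control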;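 on 0.1 uM KAM: median log10 fold change of treatment over DMSO control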;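 on 1 uM KAM: median log10 fold change of treatment over DMSO control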;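 on 10 uM KAM: median log10 fold change of treatment over DMSO control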
# T3 construct: endogenous in cells; host or cells: K562
# T3 sequence (P51841 51-1108): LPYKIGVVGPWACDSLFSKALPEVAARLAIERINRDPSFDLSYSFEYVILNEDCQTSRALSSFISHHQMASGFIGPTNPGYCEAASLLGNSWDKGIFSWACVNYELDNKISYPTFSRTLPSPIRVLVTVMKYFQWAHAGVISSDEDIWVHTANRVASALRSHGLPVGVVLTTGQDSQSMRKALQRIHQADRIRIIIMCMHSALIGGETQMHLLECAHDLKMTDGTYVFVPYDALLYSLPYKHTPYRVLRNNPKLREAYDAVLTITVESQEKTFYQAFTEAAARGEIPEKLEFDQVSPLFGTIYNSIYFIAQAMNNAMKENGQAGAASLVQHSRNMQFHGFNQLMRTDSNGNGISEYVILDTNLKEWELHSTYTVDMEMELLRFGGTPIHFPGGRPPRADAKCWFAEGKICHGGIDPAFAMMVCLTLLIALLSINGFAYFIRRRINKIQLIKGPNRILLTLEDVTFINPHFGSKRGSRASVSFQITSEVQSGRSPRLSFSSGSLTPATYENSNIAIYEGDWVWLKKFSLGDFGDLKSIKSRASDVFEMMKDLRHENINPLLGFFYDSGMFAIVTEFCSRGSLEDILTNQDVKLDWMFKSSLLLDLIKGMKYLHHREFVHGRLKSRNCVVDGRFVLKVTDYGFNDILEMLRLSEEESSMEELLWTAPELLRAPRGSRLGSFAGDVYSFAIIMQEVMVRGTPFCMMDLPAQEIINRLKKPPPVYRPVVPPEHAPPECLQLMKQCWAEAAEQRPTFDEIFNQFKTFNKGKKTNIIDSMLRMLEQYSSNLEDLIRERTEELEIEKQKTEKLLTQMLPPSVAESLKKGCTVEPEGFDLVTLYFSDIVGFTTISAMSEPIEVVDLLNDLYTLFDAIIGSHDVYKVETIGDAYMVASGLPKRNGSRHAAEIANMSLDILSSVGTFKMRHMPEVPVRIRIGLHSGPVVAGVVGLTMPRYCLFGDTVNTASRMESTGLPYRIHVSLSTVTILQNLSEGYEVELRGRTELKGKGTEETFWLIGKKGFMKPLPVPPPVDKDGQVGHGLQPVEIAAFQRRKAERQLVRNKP
# Method: as §1
# MAST3 = molecular target: T4, MAST3 (Homo sapiens, UniProt O60307)
# T4 construct: endogenous in cells; host or cells: K562 cells (lysate)
# T4 sequence (O60307 whole entry): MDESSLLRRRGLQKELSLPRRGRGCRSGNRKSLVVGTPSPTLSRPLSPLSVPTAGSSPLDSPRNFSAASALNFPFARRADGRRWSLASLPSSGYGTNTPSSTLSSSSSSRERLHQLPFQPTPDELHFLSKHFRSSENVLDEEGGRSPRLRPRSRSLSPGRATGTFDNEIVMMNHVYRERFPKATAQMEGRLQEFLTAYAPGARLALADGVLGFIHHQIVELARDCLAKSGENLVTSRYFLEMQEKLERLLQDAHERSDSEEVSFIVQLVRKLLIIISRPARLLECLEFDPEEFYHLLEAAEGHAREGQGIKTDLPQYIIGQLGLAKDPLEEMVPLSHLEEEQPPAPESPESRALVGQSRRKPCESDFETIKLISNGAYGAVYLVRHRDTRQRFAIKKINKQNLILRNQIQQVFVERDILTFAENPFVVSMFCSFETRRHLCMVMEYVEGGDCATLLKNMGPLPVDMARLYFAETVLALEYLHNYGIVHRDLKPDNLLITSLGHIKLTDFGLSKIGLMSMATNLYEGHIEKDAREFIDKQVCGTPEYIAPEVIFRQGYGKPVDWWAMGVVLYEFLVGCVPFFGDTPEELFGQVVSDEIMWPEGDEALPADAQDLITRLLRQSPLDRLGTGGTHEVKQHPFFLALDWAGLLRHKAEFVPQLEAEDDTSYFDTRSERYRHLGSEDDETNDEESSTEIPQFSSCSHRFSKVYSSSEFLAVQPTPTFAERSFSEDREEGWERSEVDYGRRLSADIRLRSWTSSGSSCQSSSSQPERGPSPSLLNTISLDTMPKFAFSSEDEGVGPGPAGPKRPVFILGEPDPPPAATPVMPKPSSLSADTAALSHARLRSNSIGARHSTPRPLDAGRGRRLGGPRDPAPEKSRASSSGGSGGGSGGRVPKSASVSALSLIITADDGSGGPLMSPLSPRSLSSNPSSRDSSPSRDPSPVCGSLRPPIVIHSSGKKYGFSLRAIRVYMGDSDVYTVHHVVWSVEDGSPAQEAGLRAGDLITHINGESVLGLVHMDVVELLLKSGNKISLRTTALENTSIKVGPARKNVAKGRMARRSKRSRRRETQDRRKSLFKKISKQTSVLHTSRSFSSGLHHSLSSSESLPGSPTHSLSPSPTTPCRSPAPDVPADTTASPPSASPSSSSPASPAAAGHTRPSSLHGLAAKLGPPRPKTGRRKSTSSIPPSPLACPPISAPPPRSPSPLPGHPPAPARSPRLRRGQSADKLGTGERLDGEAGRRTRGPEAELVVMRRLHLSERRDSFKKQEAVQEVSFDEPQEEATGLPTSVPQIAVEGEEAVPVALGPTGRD
# Method: as §1
# TBK1 = molecular target: T5, TBK1 (Homo sapiens, UniProt Q9UHD2)
# T5 construct: endogenous in cells; host or cells: K562
# T5 sequence (Q9UHD2 1-729): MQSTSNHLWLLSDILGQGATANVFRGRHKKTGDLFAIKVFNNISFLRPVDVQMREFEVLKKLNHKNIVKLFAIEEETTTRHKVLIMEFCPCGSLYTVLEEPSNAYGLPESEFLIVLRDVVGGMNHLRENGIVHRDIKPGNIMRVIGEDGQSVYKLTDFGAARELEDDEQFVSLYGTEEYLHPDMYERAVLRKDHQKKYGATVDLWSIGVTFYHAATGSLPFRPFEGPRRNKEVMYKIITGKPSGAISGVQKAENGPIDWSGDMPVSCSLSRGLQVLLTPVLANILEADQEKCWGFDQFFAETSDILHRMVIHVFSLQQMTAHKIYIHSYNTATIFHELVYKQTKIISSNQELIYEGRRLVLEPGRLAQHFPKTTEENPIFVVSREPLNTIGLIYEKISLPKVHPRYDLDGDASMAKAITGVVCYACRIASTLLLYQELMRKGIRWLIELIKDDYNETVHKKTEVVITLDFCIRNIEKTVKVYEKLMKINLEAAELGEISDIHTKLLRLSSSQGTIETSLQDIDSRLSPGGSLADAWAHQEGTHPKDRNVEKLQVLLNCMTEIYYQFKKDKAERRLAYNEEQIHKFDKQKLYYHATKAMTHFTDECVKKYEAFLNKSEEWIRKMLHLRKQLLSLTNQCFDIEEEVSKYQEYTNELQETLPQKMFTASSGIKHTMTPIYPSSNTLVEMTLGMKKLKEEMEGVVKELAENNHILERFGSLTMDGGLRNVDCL
# Method: as §1
# BMP2K = molecular target: T6, BMP2K (Homo sapiens, UniProt Q9NSY1)
# T6 construct: endogenous in cells; host or cells: K562
# T6 sequence (Q9NSY1 whole entry): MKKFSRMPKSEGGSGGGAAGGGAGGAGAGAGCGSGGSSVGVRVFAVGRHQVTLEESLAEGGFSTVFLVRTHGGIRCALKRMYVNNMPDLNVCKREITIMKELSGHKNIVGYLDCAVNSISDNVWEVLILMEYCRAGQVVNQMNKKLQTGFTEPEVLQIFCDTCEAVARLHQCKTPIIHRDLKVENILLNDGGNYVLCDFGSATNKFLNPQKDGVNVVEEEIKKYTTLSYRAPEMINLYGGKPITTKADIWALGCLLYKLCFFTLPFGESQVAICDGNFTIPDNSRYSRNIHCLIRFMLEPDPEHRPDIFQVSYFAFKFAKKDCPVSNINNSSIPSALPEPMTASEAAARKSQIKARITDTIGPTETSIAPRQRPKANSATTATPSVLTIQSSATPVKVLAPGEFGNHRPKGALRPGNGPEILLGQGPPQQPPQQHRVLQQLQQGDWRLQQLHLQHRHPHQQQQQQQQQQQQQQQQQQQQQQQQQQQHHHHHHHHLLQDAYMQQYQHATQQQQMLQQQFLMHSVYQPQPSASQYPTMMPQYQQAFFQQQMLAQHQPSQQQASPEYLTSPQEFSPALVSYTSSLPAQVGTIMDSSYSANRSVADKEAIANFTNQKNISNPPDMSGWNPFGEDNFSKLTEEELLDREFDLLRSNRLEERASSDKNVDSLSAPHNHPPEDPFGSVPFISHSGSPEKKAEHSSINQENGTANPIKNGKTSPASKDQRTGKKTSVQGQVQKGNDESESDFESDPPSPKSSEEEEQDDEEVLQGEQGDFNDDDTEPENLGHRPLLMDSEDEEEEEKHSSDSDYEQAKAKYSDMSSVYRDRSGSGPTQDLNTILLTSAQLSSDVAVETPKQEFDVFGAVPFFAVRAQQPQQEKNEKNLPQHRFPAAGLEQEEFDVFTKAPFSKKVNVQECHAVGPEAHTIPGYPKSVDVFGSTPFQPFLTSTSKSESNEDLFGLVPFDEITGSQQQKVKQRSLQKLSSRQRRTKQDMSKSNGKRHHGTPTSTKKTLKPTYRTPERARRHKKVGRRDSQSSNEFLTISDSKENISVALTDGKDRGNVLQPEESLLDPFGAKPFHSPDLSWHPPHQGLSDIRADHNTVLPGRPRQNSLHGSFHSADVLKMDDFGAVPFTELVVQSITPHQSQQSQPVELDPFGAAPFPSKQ
# Method: as §1
# STK25 = molecular target: T7, STK25 (Homo sapiens, UniProt O00506);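 on 0.001 uM KAM: median log10 fold change of treatment over DMSO control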;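 on 0.01 uM KAM: median log10 fold change of treatment over DMSO control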;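 on 0.1 uM KAM: median log10 fold change of treatment over DMSO control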;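 on 1 uM KAM: median log10 fold change of treatment over DMSO control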;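 on 10 uM KAM: median log10 fold change of treatment over DMSO control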
# T7 construct: endogenous in cells; host or cells: K562 cell lysate
# T7 sequence (O00506 whole entry): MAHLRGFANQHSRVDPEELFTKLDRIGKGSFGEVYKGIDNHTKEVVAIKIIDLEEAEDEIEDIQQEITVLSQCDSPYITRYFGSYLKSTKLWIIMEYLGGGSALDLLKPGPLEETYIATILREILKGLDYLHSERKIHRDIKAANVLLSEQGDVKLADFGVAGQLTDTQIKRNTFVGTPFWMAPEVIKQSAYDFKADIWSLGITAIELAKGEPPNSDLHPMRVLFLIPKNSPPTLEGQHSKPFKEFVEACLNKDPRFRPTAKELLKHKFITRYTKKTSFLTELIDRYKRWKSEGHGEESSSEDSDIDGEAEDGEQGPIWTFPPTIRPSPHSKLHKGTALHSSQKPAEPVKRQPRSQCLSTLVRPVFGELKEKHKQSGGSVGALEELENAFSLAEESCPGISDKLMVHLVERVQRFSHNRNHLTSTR
# Method: as §1
# CDK16 = molecular target: T8, CDK16 (Homo sapiens, UniProt Q00536)
# T8 construct: endogenous in cells; host or cells: K562
# T8 sequence (Q00536 whole entry): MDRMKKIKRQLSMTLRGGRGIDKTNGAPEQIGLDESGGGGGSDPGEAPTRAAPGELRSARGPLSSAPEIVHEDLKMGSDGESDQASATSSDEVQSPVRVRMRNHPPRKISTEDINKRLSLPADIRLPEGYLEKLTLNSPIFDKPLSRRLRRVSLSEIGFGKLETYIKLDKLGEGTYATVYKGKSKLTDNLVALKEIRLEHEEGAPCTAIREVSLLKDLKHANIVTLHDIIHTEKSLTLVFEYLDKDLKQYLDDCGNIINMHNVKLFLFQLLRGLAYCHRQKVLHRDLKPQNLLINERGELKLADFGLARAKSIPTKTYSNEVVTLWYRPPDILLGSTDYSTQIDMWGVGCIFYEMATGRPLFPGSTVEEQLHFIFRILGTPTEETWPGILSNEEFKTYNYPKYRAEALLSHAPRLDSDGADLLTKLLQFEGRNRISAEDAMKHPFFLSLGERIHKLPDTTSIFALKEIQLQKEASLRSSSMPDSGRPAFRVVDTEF
# Method: as §1
# [1] = KAM 0.001-10 uM, read-out: RB50 (the source's name)
# [2] = read-out: RB50 (the source's name)
smiles,measurement,setting,value
N#CCc1ccc(Nc2nc(NCCCN)cc(Nc3cc(C4CC4)[nH]n3)n2)cc1 [KAM],IC50,MTOR; [1],> 10000 nM
same,0.001 uM KAM,MTOR; relative to 0 uM KAM = 0,-0.05296
same,0.01 uM KAM,MTOR; relative to 0 uM KAM = 0,-0.02855
same,0.1 uM KAM,MTOR; relative to 0 uM KAM = 0,-0.0574
same,1 uM KAM,MTOR; relative to 0 uM KAM = 0,-0.03577
same,10 uM KAM,MTOR; relative to 0 uM KAM = 0,-0.01614
same,median Log10 fold change,JAK1; 0.001 uM KAM,-0.0004094
same,median Log10 fold change,JAK1; 0.01 uM KAM,0.001552
same,median Log10 fold change,JAK1; 0.1 uM KAM,-0.1118
same,median Log10 fold change,JAK1; 1 uM KAM,-0.4812
same,median Log10 fold change,JAK1; 10 uM KAM,-0.5497
same,IC50,JAK1; [2],518 nM
same,IC50,GUCY2F; [1],> 10000 nM
same,0.001 uM KAM,GUCY2F; relative to 0 uM KAM = 0,-0.02463
same,0.01 uM KAM,GUCY2F; relative to 0 uM KAM = 0,-0.02113
same,0.1 uM KAM,GUCY2F; relative to 0 uM KAM = 0,0.03818
same,1 uM KAM,GUCY2F; relative to 0 uM KAM = 0,0.1179
same,10 uM KAM,GUCY2F; relative to 0 uM KAM = 0,-0.02163
same,median Log10 fold change,MAST3; 0.001 uM KAM,-0.04433
same,median Log10 fold change,MAST3; 0.01 uM KAM,-0.01527
same,median Log10 fold change,MAST3; 0.1 uM KAM,-0.1684
same,median Log10 fold change,MAST3; 1 uM KAM,-0.3441
same,median Log10 fold change,MAST3; 10 uM KAM,-0.4667
same,IC50,MAST3; [2],784 nM
same,median Log10 fold change,TBK1; 0.001 uM KAM,-0.0003533
same,median Log10 fold change,TBK1; 0.01 uM KAM,0.01133
same,median Log10 fold change,TBK1; 0.1 uM KAM,-0.1059
same,median Log10 fold change,TBK1; 1 uM KAM,-0.5242
same,median Log10 fold change,TBK1; 10 uM KAM,-0.6823
same,IC50,TBK1; [2],452 nM
same,median Log10 fold change,BMP2K; 0.001 uM KAM,-0.005905
same,median Log10 fold change,BMP2K; 0.01 uM KAM,-0.3094
same,median Log10 fold change,BMP2K; 0.1 uM KAM,-0.4691
same,median Log10 fold change,BMP2K; 1 uM KAM,-0.5686
same,median Log10 fold change,BMP2K; 10 uM KAM,-0.6945
same,IC50,BMP2K; [2],16 nM
same,IC50,STK25; [1],> 10000 nM
same,0.001 uM KAM,STK25; relative to 0 uM KAM = 0,-0.05569
same,0.01 uM KAM,STK25; relative to 0 uM KAM = 0,-0.0234
same,0.1 uM KAM,STK25; relative to 0 uM KAM = 0,-0.1788
same,1 uM KAM,STK25; relative to 0 uM KAM = 0,-0.2616
same,10 uM KAM,STK25; relative to 0 uM KAM = 0,-0.2742
same,median Log10 fold change,CDK16; 0.001 uM KAM,0.002002
same,median Log10 fold change,CDK16; 0.01 uM KAM,0.005918
same,median Log10 fold change,CDK16; 0.1 uM KAM,-0.06683
same,median Log10 fold change,CDK16; 1 uM KAM,-0.3041
same,median Log10 fold change,CDK16; 10 uM KAM,-0.3301
same,IC50,CDK16; [2],1970 nM
